From ChEMBL document CHEMBL1201862, “PubChem BioAssay data set” (2004) come the findings set out here.

SMILES strings stand for the structures. Active and inactive are the calls of the source. Cut-off read from the data, not from the text of the source, for most assays here: actives have a measured EC50 and inactives only a lower limit. Some results are limits rather than exact numbers.

The target in assay [1] is Luciferin 4-monooxygenase (Photinus pyralis, UniProt P08659). Kind of assay: firefly luciferase enzyme inhibitors, dose response, biochemical, luminescence (AID 1891).
A short description of assay [2]: Luminescence Cell-Based Dose Confirmation HTS to Identify Inhibitors of Platelet Dense Granule Release. [Related pubchem assays: 1663 (Primary HTS), 1678 (Summary of Project)]. The class given is functional.
For the next assay, the system named is INS1. Put plainly: beta cell apoptosis inhibitors, cytokine rescue, dose response, luminescence, retest (AID 449756).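 Note: cell death triggered by IL-1 beta plus TNF-alpha plus IFN-gamma mixture; protective hits raise ATP signal compared with cytokine alone wells.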 The class given is functional, cell-based. The conditions noted are these: Rattus norvegicus.
For assay [3], the target named is T1, Replicative DNA helicase DnaB (Mycobacterium tuberculosis, UniProt P9WMR3).
T1 sequence (P9WMR3 whole entry): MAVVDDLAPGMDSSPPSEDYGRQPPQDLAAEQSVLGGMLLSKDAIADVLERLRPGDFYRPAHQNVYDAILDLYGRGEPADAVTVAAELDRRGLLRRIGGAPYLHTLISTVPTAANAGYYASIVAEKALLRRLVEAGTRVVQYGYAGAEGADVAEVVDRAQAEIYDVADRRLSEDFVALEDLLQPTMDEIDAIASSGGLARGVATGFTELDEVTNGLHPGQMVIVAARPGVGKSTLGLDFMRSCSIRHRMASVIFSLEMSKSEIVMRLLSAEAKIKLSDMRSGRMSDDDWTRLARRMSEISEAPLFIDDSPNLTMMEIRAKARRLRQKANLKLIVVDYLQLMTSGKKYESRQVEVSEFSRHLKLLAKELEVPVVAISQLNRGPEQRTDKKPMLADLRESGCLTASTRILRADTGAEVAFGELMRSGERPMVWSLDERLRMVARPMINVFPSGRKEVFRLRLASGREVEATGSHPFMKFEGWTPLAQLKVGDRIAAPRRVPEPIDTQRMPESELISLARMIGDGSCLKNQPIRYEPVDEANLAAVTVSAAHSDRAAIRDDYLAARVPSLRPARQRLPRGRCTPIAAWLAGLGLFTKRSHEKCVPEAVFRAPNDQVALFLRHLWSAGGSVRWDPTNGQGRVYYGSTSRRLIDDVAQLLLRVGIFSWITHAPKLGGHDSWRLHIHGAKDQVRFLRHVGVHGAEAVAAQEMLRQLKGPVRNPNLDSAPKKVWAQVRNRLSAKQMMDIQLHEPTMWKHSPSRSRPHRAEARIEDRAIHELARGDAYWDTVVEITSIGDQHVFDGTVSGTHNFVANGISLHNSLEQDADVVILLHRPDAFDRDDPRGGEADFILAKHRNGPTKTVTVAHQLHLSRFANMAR
Kind of assay: DnaB intein splicing inhibitors, dose response, biochemical, cell-free fluorescence (AID 449749). The format is functional.

The next assay addresses T2, Protein RecA (Mycobacterium tuberculosis, UniProt P9WHJ3).
T2 sequence (P9WHJ3 whole entry): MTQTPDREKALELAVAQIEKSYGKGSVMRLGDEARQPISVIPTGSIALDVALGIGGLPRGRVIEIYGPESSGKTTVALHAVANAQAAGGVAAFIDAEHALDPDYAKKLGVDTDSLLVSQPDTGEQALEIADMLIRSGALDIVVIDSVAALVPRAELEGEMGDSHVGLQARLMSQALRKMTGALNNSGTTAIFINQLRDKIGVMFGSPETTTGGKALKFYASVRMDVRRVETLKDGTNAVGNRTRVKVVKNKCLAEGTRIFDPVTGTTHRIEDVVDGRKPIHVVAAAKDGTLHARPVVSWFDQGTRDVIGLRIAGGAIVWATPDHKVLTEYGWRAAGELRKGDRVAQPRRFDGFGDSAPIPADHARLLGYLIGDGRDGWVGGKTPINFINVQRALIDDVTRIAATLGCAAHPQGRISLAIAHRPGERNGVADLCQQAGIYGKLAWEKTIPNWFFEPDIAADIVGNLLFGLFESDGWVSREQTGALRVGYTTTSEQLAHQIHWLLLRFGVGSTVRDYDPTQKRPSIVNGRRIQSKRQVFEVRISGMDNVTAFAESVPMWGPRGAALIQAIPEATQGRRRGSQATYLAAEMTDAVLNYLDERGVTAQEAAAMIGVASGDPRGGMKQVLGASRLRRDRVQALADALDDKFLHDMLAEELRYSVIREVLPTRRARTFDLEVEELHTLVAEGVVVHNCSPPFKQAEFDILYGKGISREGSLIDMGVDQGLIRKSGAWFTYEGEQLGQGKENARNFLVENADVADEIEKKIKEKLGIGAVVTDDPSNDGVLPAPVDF
Put plainly: Fluorescence Cell-Free Homogeneous Dose Retest to Identify Inhibitors of RecA-Intein Splicing Activity. [Related pubchem assays (depositor defined):AID2097, AID2223, AID489010, AID492950]. The class given is functional.

Assay [4] addresses T3, Heat shock factor protein 1 (Mus musculus, UniProt P38532).
T3 sequence (P38532 whole entry): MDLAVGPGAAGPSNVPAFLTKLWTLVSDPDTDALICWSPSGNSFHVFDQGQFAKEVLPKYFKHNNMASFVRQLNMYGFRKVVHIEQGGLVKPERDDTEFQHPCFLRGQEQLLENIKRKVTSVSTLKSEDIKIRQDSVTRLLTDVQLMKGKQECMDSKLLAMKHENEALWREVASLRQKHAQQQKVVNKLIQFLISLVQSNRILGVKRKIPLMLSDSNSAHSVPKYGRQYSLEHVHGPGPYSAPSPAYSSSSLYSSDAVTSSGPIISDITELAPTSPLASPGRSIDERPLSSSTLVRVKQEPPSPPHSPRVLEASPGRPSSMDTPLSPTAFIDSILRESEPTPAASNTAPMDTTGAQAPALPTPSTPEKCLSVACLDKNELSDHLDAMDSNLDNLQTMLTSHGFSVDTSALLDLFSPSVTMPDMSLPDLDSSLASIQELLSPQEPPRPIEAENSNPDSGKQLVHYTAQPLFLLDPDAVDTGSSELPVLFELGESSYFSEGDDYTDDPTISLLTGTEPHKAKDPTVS
Kind of assay: inhibition of MG132-induced HSE-luciferase signal, confirmation, cell-based, NIH3T3, luminescence, dose retest (AID 2382).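 Note: NIH3T3 fibroblasts with HSF1-driven luciferase reporter stressed by proteasome inhibitor MG132; luminescence from HSF1-driven luciferase expression after 8 hours of MG132 stress.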 The class given is functional.

A further assay deals with T4, Cytochrome P450 1A2 (Homo sapiens, UniProt P05177).
T4 sequence (P05177 whole entry): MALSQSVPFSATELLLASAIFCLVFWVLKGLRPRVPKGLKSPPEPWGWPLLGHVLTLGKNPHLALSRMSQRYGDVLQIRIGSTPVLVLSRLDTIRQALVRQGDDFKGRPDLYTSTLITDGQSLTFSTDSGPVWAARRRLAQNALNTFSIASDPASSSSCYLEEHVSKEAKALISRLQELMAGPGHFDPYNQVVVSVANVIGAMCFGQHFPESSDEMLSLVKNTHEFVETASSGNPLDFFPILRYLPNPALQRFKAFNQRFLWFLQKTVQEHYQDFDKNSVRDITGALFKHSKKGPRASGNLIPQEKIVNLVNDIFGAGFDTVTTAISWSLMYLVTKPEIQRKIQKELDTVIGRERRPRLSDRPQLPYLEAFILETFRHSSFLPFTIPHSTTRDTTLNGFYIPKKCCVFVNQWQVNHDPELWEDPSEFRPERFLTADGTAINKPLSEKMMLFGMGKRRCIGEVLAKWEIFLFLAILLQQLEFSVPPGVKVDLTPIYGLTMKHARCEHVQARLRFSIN

Assay [5] can be described thus: inhibitors of intracellular T. cruzi replication, confirmation, NIH3T3 host cells, beta-gal luminescence (AID 2044).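 Note: intracellular parasites grown in NIH/3T3 mouse fibroblasts as host cells; luminescent beta-galactosidase reporter signal from transgenic T. cruzi replicating inside host cells; inhibitors lower the luminescence signal.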 The format is functional, cell-based.
A short description of assay [6]: cytotoxicity toward NIH3T3 fibroblasts, dose response, counter-screen, cell-based, ATP luminescence, mouse fibroblasts (AID 2010).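 Note: cells exposed to compound for about 90 hours before reading.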 The class given is functional.
Assay [7] in a line: Luminescence Cell-Based Dose Retest to Confirm Inhibitors of Cancer Stem Cells. [Related pubchem assays (depositor defined):AID2717, AID2721]. The format is functional. As to conditions: Homo sapiens.

Sequence of Luciferin 4-monooxygenase (P08659 whole entry): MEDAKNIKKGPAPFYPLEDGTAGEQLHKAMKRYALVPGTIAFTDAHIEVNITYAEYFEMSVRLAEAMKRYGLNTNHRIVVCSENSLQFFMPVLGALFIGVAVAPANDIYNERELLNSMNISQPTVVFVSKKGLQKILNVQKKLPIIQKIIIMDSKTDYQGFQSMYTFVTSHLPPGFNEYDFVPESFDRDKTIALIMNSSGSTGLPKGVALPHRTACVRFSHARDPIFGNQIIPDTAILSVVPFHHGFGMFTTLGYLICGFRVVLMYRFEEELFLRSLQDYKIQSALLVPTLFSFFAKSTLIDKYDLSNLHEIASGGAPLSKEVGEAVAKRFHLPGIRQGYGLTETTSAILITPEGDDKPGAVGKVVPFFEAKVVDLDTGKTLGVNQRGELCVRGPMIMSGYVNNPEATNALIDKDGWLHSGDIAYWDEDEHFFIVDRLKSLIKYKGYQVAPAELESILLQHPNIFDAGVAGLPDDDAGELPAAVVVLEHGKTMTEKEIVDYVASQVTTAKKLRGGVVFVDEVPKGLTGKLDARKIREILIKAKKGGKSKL

With `COc1cc2sc3ccc(C#CC4(O)CCCCC4)cc3c(=O)c2cc1OC`, the concentration for a half-maximal effect (EC50) is 2.35 µM (active) in assay [1] and 4.69 µM (active) in assay [2].
For the compound `N=C(NOC(=O)c1ccc(Cl)cc1Cl)c1ccccn1`, the EC50 in assay [1] is 1.05 µM (active); in assay [2], 3.11 µM (active). Besides, the half-maximal activity concentration (AC50) in the assay with INS1 is 30 µM (active).
Take `Cc1cccc(NC(=O)C2CCCN(C(=O)NC3CCCCC3)C2)c1C` (centres undefined): the concentration for a half-maximal effect (EC50) in assay [1] and in assay [2] was > 112 µM (not active) each time.
As for `COc1ccc(CN=C(S)NNC(=O)c2cc3ccccc3o2)cc1`, the half-maximal effective concentration (EC50) in assay [1] and in assay [2] was > 112 µM (not active) throughout.
Consider `O=C(CSC1=NCCS1)Nc1nc(-c2ccccc2)cs1`, for which, in assay [3], the AC50 is > 380 µM (inconclusive). Also, the EC50 on Protein RecA was 7.45 µM (active).
Regarding `CCc1c(C)nc2ccc(C)cc2c1O`, in assay [4], the 50% effective concentration (EC50) was > 195 µM (not active).
Regarding `Cc1noc(C)c1CSCC(=O)Oc1ccc(N(C)S(=O)(=O)c2ccc(Cl)cc2)cc1`, the half-maximal activity concentration (AC50) in [3] is 2.34 µM (active). Also, the EC50 at Protein RecA was 13.8 µM (active).
With `CCN(CC(=O)Nc1ccccc1OC)C(=O)Cn1cnc2ccccc2c1=O`, the EC50 in assay [1] and in assay [2] was > 112 µM (not active) each time.
For the compound `COc1ccc2nc(SCC(=O)NN)cc(C)c2c1`, the figures for the AC50 (at Cytochrome P450 1A2; in assay [3]) were 0.398 µM (inconclusive) and 50.5 µM (active), respectively. Besides, the EC50 on Protein RecA was 10.6 µM (active).
Take `CC(Oc1ccccc1Cl)C(=O)Nc1ccc(S(=O)(=O)N2CCCC2)cc1` (centres undefined): the concentration for a half-maximal effect (EC50) was 32 µM (active) in [1] and > 112 µM (not active) in assay [2].
On to `Cc1ccc(N2C(=O)C(Cl)=C(N3CCOCC3)C2=O)c(C)c1`, for which the AC50 in [3] was 16 µM (active). Also, the EC50 at Protein RecA was 4.19 µM (active).
On to `Cc1cc(C)nc(NC(=O)c2ccc(C)c([N+](=O)[O-])c2)n1`, for which, in assay [4], the EC50 is listed as > 195 µM (not active).
For `COc1ccc(-n2cc([N+](=O)[O-])c(=O)c3ccc(Cl)cc32)cc1`, in [4], the concentration giving a half-maximal response (EC50) was > 195 µM (not active).
The same measure, in the same setting: with `CCOC(=O)CN1C(=O)S/C(=C/c2cc(C)n(C)c2C)C1=O` the figure was > 195 µM (not active); with `CC(C)Cn1c(N2CCN(C(=O)/C=C/c3ccccc3)CC2)nc2ccccc21`, > 195 µM (not active).
Take `Cc1cc(NC(=O)c2c(Cl)cccc2Cl)no1`: the EC50 in assay [1] and in assay [2] was > 112 µM (not active) in each case.
For the compound `S=C(NCCc1ccccc1)N1CCN(Cc2ccc(Cl)c(Cl)c2)CC1`, the EC50 in [4] is > 195 µM (not active).
For the compound `CC1COc2ccccc2N1C(=O)c1ccc(F)cc1` (centres undefined), in [4], the EC50 is given as > 195 µM (not active).
Same read-out and setting: the result for `O=C(O)/C=C/C(=O)Nc1cc(F)ccc1F` reads 35.9 µM (active).
Take `CCOC(=O)c1c(C)[nH]c(C(=O)C(C)OC(=O)c2oc3ccccc3c2COC)c1C` (centres undefined): the figures for the EC50 in [1] and in [2] were > 112 µM (not active) and 5.48 µM (active), respectively.
In the same order, the values of `CCOC(=S)SCC(=O)Nc1nccs1` are > 112 µM (not active) and 21.6 µM (active).
For `CCOC(=O)c1cc(C#N)c(NCc2ccccc2)nc1C`, the EC50 in assay [4] was > 195 µM (not active).
In the case of `Cc1ccc(NS(=O)(=O)c2ccc(Cl)c(C(=O)Nc3ccccc3-c3nc4ccccc4[nH]3)c2)cc1C`, the concentration giving a half-maximal response (EC50) in assay [5] is 2.49 µM (active); in [1], > 112 µM (not active); in [2], > 112 µM (not active); in assay [6], < 6 µM (inconclusive). In assay [7], the AC50 is 0.647 µM (active).
With `CC(=O)c1c(C)n(CCCOC(C)C)c2ccc(O)cc12`, the EC50 in [4] was > 195 µM (not active).
As to `O=C(CCNc1cccc(F)c1)c1cccc([N+](=O)[O-])c1`, in assay [3], the AC50 is > 380 µM (inactive). Also, on Protein RecA, the EC50 was > 380 µM (inactive).
In the case of `Cc1[nH]n(C(C)(C)C)c(=O)c1Sc1ccccc1`, the concentration at half-maximal activity (AC50) in [3] is 19.1 µM (active). In addition, the half-maximal effective concentration (EC50) on Protein RecA is 2.02 µM (active).
On to `O=C(CNC(=O)C1COc2ccccc2O1)N/N=C\c1ccccc1Cl` (centres undefined), for which the AC50 in [3] is 189 µM (active). Moreover, the EC50 on Protein RecA was > 380 µM (inactive).
